The source made the active and inactive calls. The calls are words filed in the database; no cut-off is given here.

This note sets out measurements from ChEMBL document CHEMBL2331503, “Hx-amides: DNA sequence recognition by the fluorescent Hx (p-anisylbenzimidazole)•pyrrole and Hx•imidazole pairings” (Bioorg Med Chem Lett, 2013).

Assay [1] can be described thus: Binding affinity to 5'-AGCGCT DNA by surface plasmon resonance assay.
Assay [2] in a line: Binding affinity to 5'-ATGCAT DNA by surface plasmon resonance assay. Background: Surface plasmon resonance follows binding to a sensor surface in real time, without labels.
The nature of assay [3]: Binding affinity to cognate sequence of 5'-ACCGGT DNA by surface plasmon resonance assay.
Assay [4] is described as follows: Binding affinity to cognate sequence of 5'-ACCGGT DNA at 1 mol equivalent by circular dichroism analysis.
Assay [5] is described as follows: Binding affinity to 5'-ACGCGT DNA assessed as change in melting temperature at 3 mol equivalent of compound-DNA.
The nature of assay [6]: Binding affinity to 5'-ACCGGT DNA assessed as change in melting temperature at 3 mol equivalent of compound-DNA.
The nature of assay [7]: Binding affinity to 5'-AAATTT DNA assessed as change in melting temperature at 3 mol equivalent of compound-DNA.
Assay [8] is described as follows: Inhibition of 5'-ACCGGT cognate sequence containing 5'-32P labeled 131 base pair DNA (unknown origin) cleavage at 10 to 30 uM DNase I footprinting method.

`COc1ccc(-c2nc3ccc(C(=O)Nc4cn(C)c(C(=O)Nc5cn(C)c(C(=O)NCCN(C)C)n5)n4)cc3[nH]2)cc1`: the K is 5 ×10⁵ /M in assay [1], 1 ×10⁶ /M in assay [2] and 2 ×10⁶ /M in assay [3]. The outcome in assay [4] was Active. Moreover, the values for the thermal shift (ΔTm) in assay [5], in assay [6] and in assay [7] were 0 °C, 5 °C and 5 °C, respectively. Besides, the inhibition entry in assay [8] was “Active”.
